Structures are written as SMILES. Read-outs that look alike come from different tables or passages of the source. Where only a bound is given, the exact number is not on record here.

In one series the test system is A549. Nature of the series: Cell viability assay, A549 cells. Format: cell-based. Particulars: Homo sapiens. As for the experimental part:
Example 5: Inducer Compound Effect on Growth of A549 and KP4 Cells
Cell viability assay was performed to assess the potency of the compounds in cancer cell line KP4 (pancreatic ductal adenocarcinoma). Cells at a density of 1,000-10,000 cells/well were seeded in 96-well plates and incubated at 37° C. overnight. A series of 9 different concentrations of compound stocks (500×) were created by 3-fold serial dilution in DMSO. These compounds were further diluted in culture media and then added to cells so that the final DMSO concentration was equal to 0.25% or less. After 96 hours of incubation, 50 μL of CellTiter Glo reagent (Promega) was added to each well and luminescence was measured after 10 minutes using EnVision (PerkinElmer). All compounds were tested initially from 30 μM as the top concentration in duplicates (range of 4.6 nM-30 μM). […] Luminescence from cells treated with DMSO alone was set as Max and % of inhibition was calculated as follows: Inhibition %=(Max-Sample value)/Max*100. Data was analyzed using XL-fit software (ID Business Solutions Ltd.). IC50, relative IC50, or % of top inhibition was calculated. […]

The next series has as its system KP4. The series can be described thus: Cell viability assay (CellTiter Glo), pancreatic ductal adenocarcinoma KP4. The class given is cell-based, human. A digest of the protocol:
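Luminescent ATP readout (CellTiter Glo) after 96 h compound exposure, normalized to DMSO-treated cells as maximum. Compounds ran in duplicate, nine 3-fold steps from 30 μM down to 4.6 nM, final DMSO ≤0.25%; KP4 plated overnight at 1,000–10,000 cells/well. Outputs: IC50, relative IC50 or % top inhibition.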

The nature of series [1]: Whole blood stability, mouse. Format: in vitro ADME. The text has this:
(§1) The results of the assay on stability in blood and IC50 values for pancreatic cancer cell line KP4 are given below in Table 24.

Series [2] in a line: Whole blood stability, human. Format: in vitro ADME.
From the text: as §1

Another series relates to 786-O. The series can be described thus: Cell proliferation (Alamar Blue) assay, 786-O renal cell carcinoma, with/without ferrostatin. The class given is cell-based. Particulars: Homo sapiens. As for the experimental part: (§2) Cell viability assay was performed to assess the potency of the compounds in human cancer cell lines 786-O (renal cell carcinoma) and SJSA-1 (osteosarcoma). Additional cell lines, such as those described above in Example 4 as well as various others, e.g., pancreatic cancer cell lines (Panc 02.13, BxPC-3, Panc 12, Panc 02.03, Panc 6.03, PSN-1, HPAC, and Capan-1) and prostate cancer cell lines (PC-3, DU145, 22Rv1, NCI-H660, BPH1, LNCaP, BM-1604, and MDA PCa 2b), were tested for select compounds as shown in Table 25.
(§3) Cells (SJSA-1, 786-O and A431) were seeded (5000 cells/100 μL/well) in 96-well tissue culture plate and incubated at 37° C./5% CO2 for 16-24 hours. The cells were then treated with compounds (25 μL of 5×). The compound concentrations were 10-0.0005 μM prepared in 3-fold serial dilutions with final DMSO concentration of 1%. The plates were then incubated for 24 h at 37° C./5% CO2 in a moist environment. Then Alamar Blue™ reagent (final concentration 1×-12.5 μL) was added to each well and incubated for 1.5 hours at 37° C./5% CO2. The plates were read on fluorescence reader at 540 nm excitation and 590 nm emission wavelengths. The IC50 values were subsequently determined using a sigmoidal dose-response curve (variable slope) in GraphPad Prism® 5 software.
(§4) Studies have shown that lipophilic antioxidants, such as ferrostatin, can rescue cells from GPX4 inhibition-induced ferroptosis. For instance, mesenchymal state GPX4-knockout cells can survive in the presence of ferrostatin, however, when the supply of ferrostatin is terminated, these cells undergo ferroptosis (see, e.g., Viswanathan et al., Nature 547:453-7, 2017). […] Accordingly, the ability of a molecule to induce ferroptotic cancer cell death, and that such ability is admonished by the addition of ferrostatin, is clear indication that the molecule is an GPX4 inhibitor.

The next series concerns SJSA-1. Nature of the series: Cell proliferation (Alamar Blue) assay, SJSA-1 osteosarcoma, with/without ferrostatin. Format: cell-based, human. Particulars: Homo sapiens. How it is done: as §2, §3, §4
Setting [3] is: A549, Cell Line A549, read-out: IC50.
Setting [4] is: Homo sapiens, KP-4, Cell Line KP4, read-out: IC50.
[5] abbreviates: Homo sapiens, KP-4, 96 h, pancreatic cancer cell line KP4, 96 hours, CellTiter Glo, read-out: IC50 μM KP4.
The mark [6] stands for this setting: A549, A549, read-out: IC50 for A549.
The mark [7] stands for this setting: 786-0, Cell Line 786-O, read-out: IC50.
Where [8] appears, read: SJSA-1, Cell Line SJSA-1, read-out: IC50.

As to `[2H]C([2H])(Cl)C(=O)N1[C@@H](c2ccc(C(=O)NC34CC5CC(CC(C5)C3)C4)cc2)c2[nH]c3ccccc3c2C[C@@H]1C(=O)OC` [Compound 250], the IC50 with A549 (setting [3]) was determined as 2400 nM.

Regarding `C=CC(=O)N1[C@@H](c2ccc(N3CCOCC3)cc2)c2[nH]c3ccccc3c2C[C@@H]1C` [Compound 238], the results for the IC50 in the series with KP4 (setting [4]) and in the series on A549 (setting [3]) were more than 10 µM and more than 10000 nM, respectively.

With `C[C@H]1Cc2c([nH]c3ccc(Cl)cc23)[C@H](c2ccc(N3CCOCC3)cc2)N1C(=O)CCl` [Compound 120], the IC50 is 0.1 to 0.5 µM in the series with KP4 (setting [5]) and 807 nM in the series on A549 (setting [3]).

As to `COC(=O)c1ccc([C@H]2c3[nH]c4ccc(Cl)cc4c3C[C@H](C(=O)OC)N2C(=O)CCl)cc1` [Example 93], in the series on A549 (setting [6]), the IC50 was found to be 250 nM.

Take `C/C=C/C(=O)N1[C@@H](c2ccc(N3CCOCC3)cc2)c2[nH]c3ccccc3c2C[C@@H]1C` [Compound 228]: the IC50 is more than 30 µM in the series on KP4 (setting [4]) and more than 30000 nM with A549 (setting [3]).

Turning to `C=CC(=O)N1[C@@H](c2ccc(C(=O)OC)cc2)c2[nH]c3ccccc3c2C[C@@H]1C(=O)OC` [Compound 274], the IC50 in the series with KP4 (setting [4]) worked out at 4.54 µM; with A549 (setting [3]) it was 11800 nM.

As for `CC(C)(C)OC(=O)c1ccc([C@H]2c3[nH]c4ccccc4c3C[C@H](CO)N2C(=O)CCl)cc1` [Compound 257], the IC50 in the series on KP4 (setting [4]) was 10.4 µM; with A549 (setting [3]), 8140 nM.

With `CN(C)C(=O)[C@H]1Cc2c([nH]c3ccccc23)[C@H](c2ccc(N)cc2)N1C(=O)CCl` [Compound 259], the IC50 was found to be 0.212 µM with KP4 (Cell Line KP4, read-out: IC50); 0.179 µM in the series on KP4 (setting [4]); 7970 nM in the series on A549 (setting [3]).

Take `C[C@H]1Cc2c([nH]c3ccccc23)[C@H](c2ccc(C3(O)COC3)cc2)N1C(=O)CCl` [Compound 236]: the IC50 is more than 1 µM with KP4 (Cell Line KP4, read-out: IC50); 1.2 µM in the series with KP4 (setting [4]); 17500 nM with A549 (setting [3]).

Consider `C[C@H]1Cc2c([nH]c3ccccc23)[C@H](c2ccc(C3(O)CCOCC3)cc2)N1C(=O)CCl` [Compound 237], for which the IC50 is 0.458 µM with KP4 (setting [4]) and 1860 nM in the series with A549 (setting [3]).

For `COC(=O)[C@H]1Cc2c([nH]c3ccccc23)[C@H](c2ccc(C(=O)OC(C)(C)C)cc2)N1C(=O)C(C)(C)CCl` [Compound 264], the values for the IC50 in the series with KP4 (setting [4]) and in the series on A549 (setting [3]) were 8.69 µM and 4450 nM, respectively.

In the case of `COC(=O)[C@H]1Cc2c([nH]c3ccccc23)[C@H](c2ccc(O)cc2)N1C(=O)CCl` [Compound 265], the IC50 was 0.1 to 0.5 µM in the series on KP4 (setting [5]) and 25400 nM with A549 (setting [3]). The “Whole Blood Stability % Remaining at 37° C. Mouse” value in series [1] (0 min) was 100.0%; in series [1] (30 min), 75.5%; in series [1] (60 min) it was 61.6%. Besides, the “Whole Blood Stability % Remaining at 37° C. Human” value in series [2] (0 min) is reported as 100.0%; in series [2] (30 min), 61.6%; in series [2] (60 min), 45.2%.

With `C=C(C)C(=O)N1[C@@H](c2ccc(N3CCOCC3)cc2)c2[nH]c3ccccc3c2C[C@@H]1C` [Compound 229], the results for the IC50 in the series with KP4 (setting [4]) and in the series with A549 (setting [3]) were more than 30 µM and more than 30000 nM, respectively.

On to `C[C@H]1Cc2c([nH]c3ccc(C(C)(C)O)cc23)[C@H](c2ccc(N3CCOCC3)cc2)N1C(=O)CCl` [Compound 235], for which the IC50 in the series on KP4 (setting [4]) worked out at 0.041 µM; in the series with A549 (setting [3]), 7180 nM.

As to `CC(C)[C@H]1Cc2c([nH]c3ccccc23)[C@H](c2ccc(N3CCOCC3)cc2)N1C(=O)CCl` [Compound 119], the IC50 is 0.102 µM in the series on KP4 (setting [4]) and 12800 nM in the series on A549 (setting [3]).

`C[C@H]1Cc2c([nH]c3ccccc23)[C@H](c2ccc(N3CCOCC3)cc2)N1C(=O)/C=C/C(F)(F)F` [Compound 230]: the IC50 with KP4 (setting [4]) was more than 30 µM; in the series with A549 (setting [3]) it was 22000 nM.

Consider `C[C@H]1Cc2c([nH]c3ccc(Cl)cc23)[C@H](c2ccc(N3CCOCC3)cc2)N1C(=O)CCl` [Example 120], for which the IC50 in the series on KP4 (setting [4]) is 0.362 µM; in the series on A549 (setting [6]) it was 810 nM.

As for `C[C@H]1Cc2c([nH]c3ccccc23)[C@@H](c2ccc(S(=O)(=O)NC3CCNCC3)cc2)N1C(=O)CCl` [Compound 133, 4-((1R,3S)-2-(2-chloroacetyl)-3-methyl-2,3,4,9-tetrahydro-1H-pyrido[3,4-b]indol-1-yl)-N-(piperidin-4-yl)benzenesulfonamide2,2,2-trifluoroacetic acid], the IC50 in the series on 786-O (setting [7]) and in the series on SJSA-1 (setting [8]) was more than 10 µM each time.

For `C#CC(=O)N1[C@@H](c2ccc(C(=O)NC3CC3)cc2)c2ccc(OC)cc2C[C@@H]1C` [Compound 279], the figures for the IC50 in the series with 786-O (setting [7]) and with SJSA-1 (setting [8]) were 0.58 µM and 1 µM, respectively.

`C[C@H]1Cc2c([nH]c3ccccc23)[C@H](c2ccncc2)N1C(=O)CCl` [Compound 171]: the IC50 in the series on 786-O (786-0, 24 h, Alamar Blue, 24 h, 2 μM ferrostatin, read-out: 786-O (IC50, μM) 2 μM Ferrostatin) was more than 10 µM; in the series with 786-O (786-0, 24 h, Alamar Blue, 24 h, without ferrostatin, read-out: 786-O (IC50, μM) Without Ferrostatin), 0.162 µM; with 786-O (setting [7]), 0.162 µM; in the series on SJSA-1 (SJSA-1, 24 h, Alamar Blue, 24 h, 2 μM ferrostatin, read-out: SJSA-1 (IC50, μM) 2 μM Ferrostatin), more than 10 µM; with SJSA-1 (SJSA-1, 24 h, Alamar Blue, 24 h, without ferrostatin, read-out: SJSA-1 (IC50, μM) Without Ferrostatin), 0.254 µM.

Take `C[C@H]1Cc2c([nH]c3ccccc23)[C@H](c2ccc(S(=O)(=O)NC3CCNCC3)cc2)N1C(=O)CCl` [Compound 218, 4-((1S,3S)-2-(2-chloroacetyl)-3-methyl-2,3,4,9-tetrahydro-1H-pyrido[3,4-b]indol-1-yl)-N-(piperidin-4-yl)benzenesulfonamide]: the IC50 in the series with 786-O (setting [7]) is 8.1 µM; with SJSA-1 (setting [8]), 1.4 µM.

For `COC(=O)c1ccc([C@H]2c3[nH]c4ccc(OC)cc4c3C[C@H](C)N2C(=O)CCl)cc1` [Compound 278], the IC50 with 786-O (setting [7]) was 0.22 µM; in the series on SJSA-1 (setting [8]), 0.14 µM.

As to `C[C@H]1Cc2c([nH]c3ccccc23)[C@@H](c2ccc(N3CCOCC3)cc2)N1C(=O)CCl` [Compound 125, 2-chloro-1-((1R,3S)-3-methyl-1-(4-morpholinophenyl)-1,3,4,9-tetrahydro-2H-pyrido[3,4-b]indol-2-yl)ethan-1-one], the IC50 in the series on 786-O (setting [7]) was 2 µM; with SJSA-1 (setting [8]) it was 4 µM.

`C[C@H]1Cc2c([nH]c3ccccc23)[C@@H](c2ccc(C(=O)Nc3ccccn3)cc2)N1C(=O)CCl` (single isomer, unassigned) [Compound 160]: the IC50 amounted to 1 µM in the series on 786-O (setting [7]) and 1.3 µM with SJSA-1 (setting [8]).

Take `CC#CC(=O)N1[C@@H](c2ccc(C(=O)OC)cc2)c2[nH]c3ccccc3c2C[C@@H]1C(=O)OC` [Compound 272]: the results for the IC50 in the series on KP4 (setting [4]) and with A549 (setting [3]) were 3.99 µM and 6450 nM, respectively.

For the compound `COC(=O)[C@H]1Cc2c([nH]c3ccccc23)[C@@H](c2ccc(C(=O)NC34CC5CC(CC(C5)C3)C4)cc2)N1C(=O)CCl` [Compound 130, Methyl-(1R,3R)-1-(4-(((3S,5S,7S)-adamantan-1-yl)carbamoyl)phenyl)-2-(2-chloroacetyl)-2,3,4,9-tetrahydro-1H-pyrido[3,4-b]indole-3-carboxylate], the IC50 with 786-O (setting [7]) was 1.8 µM; with SJSA-1 (setting [8]), 2.7 µM.
